According to ChEMBL document CHEMBL1201862, “PubChem BioAssay data set” (2004):
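48-hour exposure; five concentrations; linearly interpolated endpoints. Here, GI50 denotes the concentration required for 50% inhibition of growth.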 Calls of active or inactive are those of the source. Rule as the data show it: active = GI50 up to about 1.1 µM and inactive = higher.

Key:
Experiment in all cases: inhibition of tumour cell growth, NCI panel, 48 h
NCI-H23 = tested on: NCI-H23
CCRF-CEM = tested on: CCRF-CEM
EKVX = tested on: EKVX
PC-3 = tested on: PC-3
M14 = tested on: M14
UO-31 = tested on: UO-31
HL-60 = tested on: HL-60
HT-29 = tested on: HT-29
MDA-MB-231 = tested on: MDA-MB-231
COLO 205 = tested on: COLO 205
OVCAR-8 = tested on: OVCAR-8
SK-MEL-28 = tested on: SK-MEL-28
SF-295 = tested on: SF-295
RXF 393 = tested on: RXF 393
OVCAR-3 = tested on: OVCAR-3
SK-MEL-2 = tested on: SK-MEL-2
T47D = tested on: T47D
HCT-15 = tested on: HCT-15
NCI-H226 = tested on: NCI-H226
UACC-62 = tested on: UACC-62

NC1=NC(NCC2(CO)CCC2)=CC(OCC2(CO)CCC2)N1 (stereo not given)
GI50 (NCI-H23): 26.2 µM (inactive) | GI50 (CCRF-CEM): > 100 µM (inactive) | GI50 (EKVX): > 100 µM (inactive) | GI50 (PC-3): > 100 µM (inactive) | GI50 (M14): > 100 µM (inactive) | GI50 (UO-31): > 100 µM (inactive) | GI50 (HL-60): 78.2 µM (inactive) | GI50 (HT-29): > 100 µM (inactive) | GI50 (MDA-MB-231): > 100 µM (inactive) | GI50 (COLO 205): > 100 µM (inactive) | GI50 (OVCAR-8): > 100 µM (inactive) | GI50 (SK-MEL-28): > 100 µM (inactive) | GI50 (SF-295): > 100 µM (inactive) | GI50 (RXF 393): > 100 µM (inactive) | GI50 (OVCAR-3): > 100 µM (inactive) | GI50 (SK-MEL-2): > 100 µM (inactive) | GI50 (T47D): 62.2 µM (inactive) | GI50 (HCT-15): > 100 µM | GI50 (NCI-H226): > 100 µM (inactive) | GI50 (UACC-62): > 100 µM (inactive)

CC1(C)OC(=O)N(c2ccccc2)C12C=Cc1cc([N+](=O)[O-])ccc1O2 (stereo not given)
GI50 (NCI-H23): 36.2 µM (inactive) | GI50 (CCRF-CEM): 29.1 µM (inactive) | GI50 (EKVX): 23.8 µM (inactive) | GI50 (PC-3): 22.7 µM (inactive) | GI50 (M14): 11 µM (inactive) | GI50 (UO-31): 25.1 µM (inactive) | GI50 (HL-60): 20.1 µM (inactive) | GI50 (HT-29): 35.5 µM (inactive) | GI50 (MDA-MB-231): 19.4 µM (inactive) | GI50 (COLO 205): 45.3 µM (inactive) | GI50 (OVCAR-8): 51.6 µM (inactive) | GI50 (SK-MEL-28): 83.8 µM (inactive) | GI50 (SF-295): 37.5 µM (inactive) | GI50 (RXF 393): 60.3 µM (inactive) | GI50 (OVCAR-3): 21.7 µM (inactive) | GI50 (SK-MEL-2): 33.4 µM (inactive) | GI50 (T47D): 33 µM (inactive) | GI50 (HCT-15): 48.8 µM | GI50 (NCI-H226): 44 µM (inactive) | GI50 (UACC-62): 31.3 µM (inactive)

N/C(=N\c1ccc(Cl)cc1)NS(=O)(=O)c1cc(Cl)c(Oc2ccc([N+](=O)[O-])cc2Cl)c(Cl)c1
GI50 (NCI-H23): 16.8 µM (inactive) | GI50 (CCRF-CEM): 19.7 µM (inactive) | GI50 (EKVX): 16.9 µM (inactive) | GI50 (PC-3): 16.2 µM (inactive) | GI50 (M14): 18.6 µM (inactive) | GI50 (UO-31): 18.8 µM (inactive) | GI50 (HL-60): 16.7 µM (inactive) | GI50 (HT-29): 20.4 µM (inactive) | GI50 (MDA-MB-231): 16.6 µM (inactive) | GI50 (COLO 205): 16.1 µM (inactive) | GI50 (OVCAR-8): 16.6 µM (inactive) | GI50 (SK-MEL-28): 16.9 µM (inactive) | GI50 (SF-295): 17.4 µM (inactive) | GI50 (RXF 393): 15.2 µM (inactive) | GI50 (OVCAR-3): 16.8 µM (inactive) | GI50 (SK-MEL-2): 20.5 µM (inactive) | GI50 (T47D): 14.8 µM (inactive) | GI50 (HCT-15): 16.9 µM | GI50 (NCI-H226): 17.1 µM (inactive) | GI50 (UACC-62): 12.2 µM (inactive)

CO/N=C(\C)c1ccc(Nc2c3ccccc3nc3occc23)cc1
GI50 (NCI-H23): 2.36 µM (inactive) | GI50 (CCRF-CEM): 0.47 µM (active) | GI50 (EKVX): 3.74 µM (inactive) | GI50 (PC-3): 0.527 µM (active) | GI50 (M14): 0.397 µM (active) | GI50 (UO-31): 2.42 µM (inactive) | GI50 (HL-60): 0.254 µM (active) | GI50 (HT-29): 0.284 µM (active) | GI50 (MDA-MB-231): 0.741 µM (active) | GI50 (COLO 205): 0.302 µM (active) | GI50 (OVCAR-8): 0.841 µM (active) | GI50 (SK-MEL-28): 1.43 µM (inactive) | GI50 (SF-295): 0.207 µM (active) | GI50 (RXF 393): 0.0813 µM (active) | GI50 (OVCAR-3): 0.284 µM (active) | GI50 (SK-MEL-2): 0.244 µM (active) | GI50 (T47D): 0.522 µM (active) | GI50 (HCT-15): 0.191 µM | GI50 (NCI-H226): 4.34 µM (inactive) | GI50 (UACC-62): 0.38 µM (active)

NC(CSC1(c2ccc(Cl)cc2)c2ccccc2-c2ccccc21)C(=O)O (stereo not given)
GI50 (NCI-H23): 19.1 µM (inactive) | GI50 (CCRF-CEM): 29.1 µM (inactive) | GI50 (EKVX): 67.1 µM (inactive) | GI50 (PC-3): 18.3 µM (inactive) | GI50 (M14): 26.4 µM (inactive) | GI50 (UO-31): 28.7 µM (inactive) | GI50 (HL-60): 6.4 µM (inactive) | GI50 (HT-29): 37.8 µM (inactive) | GI50 (MDA-MB-231): 18 µM (inactive) | GI50 (COLO 205): 15.5 µM (inactive) | GI50 (OVCAR-8): 17.7 µM (inactive) | GI50 (SK-MEL-28): > 100 µM (inactive) | GI50 (SF-295): 15.3 µM (inactive) | GI50 (RXF 393): 31.6 µM (inactive) | GI50 (OVCAR-3): 17.4 µM (inactive) | GI50 (SK-MEL-2): 20.9 µM (inactive) | GI50 (T47D): 29 µM (inactive) | GI50 (HCT-15): 21.6 µM | GI50 (NCI-H226): 27.2 µM (inactive) | GI50 (UACC-62): 15.4 µM (inactive)

CN(NC(=O)c1cccs1)C1=NCCN1
GI50 (NCI-H23): > 100 µM (inactive) | GI50 (CCRF-CEM): > 100 µM (inactive) | GI50 (EKVX): > 100 µM (inactive) | GI50 (PC-3): > 100 µM (inactive) | GI50 (M14): > 100 µM (inactive) | GI50 (UO-31): > 100 µM (inactive) | GI50 (HL-60): > 100 µM (inactive) | GI50 (HT-29): > 100 µM (inactive) | GI50 (MDA-MB-231): > 100 µM (inactive) | GI50 (COLO 205): > 100 µM (inactive) | GI50 (OVCAR-8): > 100 µM (inactive) | GI50 (SK-MEL-28): > 100 µM (inactive) | GI50 (SF-295): > 100 µM (inactive) | GI50 (RXF 393): > 100 µM (inactive) | GI50 (OVCAR-3): > 100 µM (inactive) | GI50 (SK-MEL-2): > 100 µM (inactive) | GI50 (T47D): > 100 µM (inactive) | GI50 (HCT-15): > 100 µM | GI50 (NCI-H226): > 100 µM (inactive) | GI50 (UACC-62): > 100 µM (inactive)

Cc1nnc2n(c1=O)CCN2C
GI50 (NCI-H23): > 100 µM (inactive) | GI50 (CCRF-CEM): > 100 µM (inactive) | GI50 (EKVX): > 100 µM (inactive) | GI50 (PC-3): > 100 µM (inactive) | GI50 (M14): > 100 µM (inactive) | GI50 (UO-31): > 100 µM (inactive) | GI50 (HL-60): > 100 µM (inactive) | GI50 (HT-29): > 100 µM (inactive) | GI50 (MDA-MB-231): > 100 µM (inactive) | GI50 (COLO 205): > 100 µM (inactive) | GI50 (OVCAR-8): > 100 µM (inactive) | GI50 (SK-MEL-28): > 100 µM (inactive) | GI50 (SF-295): > 100 µM (inactive) | GI50 (RXF 393): > 100 µM (inactive) | GI50 (OVCAR-3): > 100 µM (inactive) | GI50 (SK-MEL-2): > 100 µM (inactive) | GI50 (T47D): > 100 µM (inactive) | GI50 (HCT-15): > 100 µM | GI50 (NCI-H226): > 100 µM (inactive) | GI50 (UACC-62): > 100 µM (inactive)
